Experimental data published in patent US20130023575A1, “COMPOSITIONS AND METHODS FOR THE TREATMENT OF OCULAR SURFACE ALLERGIES” (priority 2011, published 2013).

Test: bromfenac in solution in the flowable mucoadhesive polymer carrier
Assay type: physicochemical
Conditions: by weight of the composition
Text: As used herein the term “retained in or carried with” or “retaining or carrying” embraces generally all ways that bromfenac can be associated with the flowable mucoadhesive polymer. For example, bromfenac can be in aqueous solution dispersed throughout the polymer. A bromfenac concentration of up to about 0.36% will be in solution mixed with or dispersed throughout the flowable mucoadhesive polymer carrier. Bromfenac can also be in suspension with the polymer depending on its concentration. For example, when bromfenac is used in an amount more than about 0.36% by weight of the composition, some of the bromfenac can be in suspension with the polymer carrier while an amount of up to about […] of bromfenac will still be in solution and mixed with the polymer carrier.

bromfenac concentration in solution mixed with or dispersed throughout the polymer carrier: up to 0.36%
Compound: Nc1c(CC(=O)O)cccc1C(=O)c1ccc(Br)cc1 [bromfenac]
